According to patent US8637672B2 (Deciphera Pharmaceuticals, LLC, priority 2010, dated 2014):

How the values were obtained:
Type in all cases: biochemical
RET kinase = target: T1, RET kinase (Homo sapiens, UniProt P07949); assay: RET Kinase Assay; conditions: for IC50: methods of the Biological Data section; for Fold Selectivity RET/MET: ratio RET IC50 / MET IC50
T1 construct: GST tagged recombinant human RET, amino acids 658-1114; GST; purchased Invitrogen; host or cells: insect cells
T1 sequence (P07949 658-1114): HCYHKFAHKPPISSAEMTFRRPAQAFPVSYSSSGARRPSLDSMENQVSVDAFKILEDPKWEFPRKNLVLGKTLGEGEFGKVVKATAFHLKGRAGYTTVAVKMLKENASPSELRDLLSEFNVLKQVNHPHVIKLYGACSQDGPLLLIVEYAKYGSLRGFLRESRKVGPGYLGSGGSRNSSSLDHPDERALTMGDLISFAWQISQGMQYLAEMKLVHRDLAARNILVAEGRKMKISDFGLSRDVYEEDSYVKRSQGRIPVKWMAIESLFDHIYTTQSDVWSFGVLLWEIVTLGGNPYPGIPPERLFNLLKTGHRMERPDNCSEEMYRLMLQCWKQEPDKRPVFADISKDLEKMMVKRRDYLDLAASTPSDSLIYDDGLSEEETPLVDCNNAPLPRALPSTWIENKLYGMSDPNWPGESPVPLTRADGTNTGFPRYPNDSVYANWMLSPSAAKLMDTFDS
Method: Activity of RET kinase was determined by following the production of ADP from the kinase reaction through coupling with the pyruvate kinase/lactate dehydrogenase system (see e.g., Schindler et al. Science (2000) 289: 1938-1942). In this assay, the oxidation of NADH (thus the decrease at A340 nm) was continuously monitored spectrophotometrically. The reaction mixture (100 μl) contained RET (amino acid residues 658-1114, from Invitrogen, 2 nM), polyE4Y (1.5 mg/ml), MgCl2 (18 mM), pyruvate kinase (4 units), lactate dehydrogenase (0.7 units), phosphoenol pyruvate (1 mM), and NADH (0.28 mM) in 90 mM […] buffer containing 0.2% octyl-glucoside, 1 mM DTT and 1% DMSO, pH 7.5. Test compounds were incubated with RET kinase and other reaction reagents at 22° C. for <2 min before ATP (500 μM) was added to start the reaction. The absorption at 340 nm was monitored continuously for 3 hours at 30° C. on BioTek Synergy 2 Reader. The reaction rate was calculated using the 1 to 2 h time frame. Percent inhibition was obtained by comparison of reaction rate with that of a control (i.e., with no test compound). IC50 values were calculated from a series of percent inhibition values determined at a range of inhibitor concentrations using software routines as implemented in the GraphPad Prism software package.
GST tagged recombinant human RET, amino acids 658-1114. Expressed in insect cells.

VEGFR-2 (KDR kinase) = VEGFR-2 (KDR kinase) (Homo sapiens, UniProt P35968, DEL940-989/E990V); assay: KDR Kinase Assay (VEGFR-2); conditions: for IC50: methods of the Biological Data section; for Fold Selectivity VEGFR-2/MET: ratio VEGFR-2 IC50 / MET IC50
Sequence of VEGFR-2 (KDR kinase) (P35968 with tags, fused parts or gaps DEL940-989/E990V): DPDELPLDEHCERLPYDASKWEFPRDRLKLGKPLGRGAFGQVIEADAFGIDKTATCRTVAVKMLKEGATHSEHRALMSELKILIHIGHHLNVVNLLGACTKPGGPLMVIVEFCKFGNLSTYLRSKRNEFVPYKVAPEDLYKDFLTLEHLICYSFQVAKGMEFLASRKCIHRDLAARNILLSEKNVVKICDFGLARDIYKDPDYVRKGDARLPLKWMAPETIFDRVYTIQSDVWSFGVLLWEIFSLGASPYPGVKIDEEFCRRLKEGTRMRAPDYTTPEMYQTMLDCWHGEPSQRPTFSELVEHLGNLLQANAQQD
Method: The activity of KDR kinase was determined by following the production of ADP from the kinase reaction through coupling with the pyruvate kinase/lactate dehydrogenase system (e.g., Schindler et al. Science 2000, 289, pp. 1938-1942). In this assay, the oxidation of NADH (thus the decrease at A340 nm) was continuously monitored spectrophotometrically. The reaction mixture (100 μl) contained KDR (Seq ID No. 3, 1.5 nM to 7.1 nM, nominal concentration), polyE4Y (1 mg/mL), pyruvate kinase (3.5 units), lactate dehydrogenase (5.5 units), phosphoenolpyruvate (1 mM), and NADH (0.28 mM) in 60 mM […] buffer containing 0.13% octyl-glucoside, 13 mM MgCl2, 6.8 mM DTT, and 3.5% DMSO at pH 7.5. The reaction was initiated by adding ATP (0.2 mM, final concentration). The absorption at 340 nm was continuously monitored for 3 h at 30° C. on a Polarstar Optima plate reader (BMG) or instrument of similar capacity. The reaction rate was calculated using the 1 h to 2 h time frame. Percent inhibition was obtained by comparison of reaction rate with that of a control (i.e., with no test compound). IC50 values were calculated from a series of percent inhibition values determined at a range of inhibitor concentrations using software routines as implemented in the GraphPad Prism software package.
KDR kinase assay K2 is the same as for assay K1 except that (1) a nominal concentration of 2.1 nM of enzyme was employed (2) the reaction was pre-incubated at 30° C. for 2 h prior to initiation with ATP and (3) 1.0 mM ATP (final concentration) was used to initiate the reaction.
KDR kinase assay K3 is the same as for assay K1 except that (1) a nominal concentration of 1.1 nM of enzyme was employed, (2) the buffer components per 100 μl reaction mixture were as follows: 75 mM Tris buffer containing 0.066% octyl-glucoside, 17 mM MgCl2, and 1% DMSO at pH 7.5, (3) the final concentration of DTT was 0.66 mM, (4) the reaction was pre-incubated at 30° C. for 1 h prior to initiation with ATP, and (5) 1.0 mM ATP (final concentration) was used to initiate the reaction.

c-MET kinase = target: T2, c-MET kinase (Homo sapiens, UniProt P08581); assay: c-MET Kinase Assay; conditions: for fold potency versus c-MET kinase relative to corresponding mono-fluoro analog: Compound D vs Compound E, Compound G vs Compound F; for IC50: methods of the Biological Data section
T2 construct: His6 with TEV-site leader (N); purchased Invitrogen PV3143
T2 sequence (P08581 with tags, fused parts or gaps): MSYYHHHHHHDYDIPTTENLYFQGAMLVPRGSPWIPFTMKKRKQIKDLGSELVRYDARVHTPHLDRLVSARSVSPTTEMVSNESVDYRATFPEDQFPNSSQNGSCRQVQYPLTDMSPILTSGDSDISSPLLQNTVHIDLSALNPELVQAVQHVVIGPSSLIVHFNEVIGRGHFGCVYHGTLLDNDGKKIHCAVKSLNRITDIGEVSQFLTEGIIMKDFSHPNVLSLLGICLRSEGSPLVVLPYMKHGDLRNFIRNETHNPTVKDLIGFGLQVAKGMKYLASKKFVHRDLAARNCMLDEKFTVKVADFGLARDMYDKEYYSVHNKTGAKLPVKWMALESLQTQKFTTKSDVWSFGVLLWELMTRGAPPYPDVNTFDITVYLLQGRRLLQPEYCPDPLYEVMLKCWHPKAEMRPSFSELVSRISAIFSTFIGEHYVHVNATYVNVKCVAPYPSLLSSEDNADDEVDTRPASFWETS
Method: Activity of c-MET kinase (Seq. ID No. 2) was determined by following the production of ADP from the kinase reaction through coupling with the pyruvate kinase/lactate dehydrogenase system (e.g., Schindler et al. Science 2000, 289, pp. 1938-1942). In this assay, the oxidation of NADH (thus the decrease at A340 nm) was continuously monitored spectrophotometrically. The reaction mixture (100 μl) contained c-MET (c-MET residues: 956-1390, from Invitrogen, catalogue #PV3143, 6 nM), polyE4Y (1 mg/mL), MgCl2 (10 mM), pyruvate kinase (4 units), lactate dehydrogenase (0.7 units), phosphoenol pyruvate (1 mM), and NADH (0.28 mM) in 90 mM Tris buffer containing 0.25 mM DTT, 0.2% octyl-glucoside and 1% DMSO, 7.5. Test compounds were incubated with c-MET (Seq. ID No. 2) and other reaction reagents at 22° C. for 0.5 h before ATP (100 μM) was added to start the reaction. The absorption at 340 nm was monitored continuously for 2 hours at 30° C. on Polarstar Optima plate reader (BMG). The reaction rate was calculated using the 1.0 to 2.0 h time frame. Percent inhibition was obtained by comparison of reaction rate with that of a control (i.e., with no test compound). IC50 values were calculated from a series of percent inhibition values determined at a range of inhibitor concentrations using software routines as implemented in the GraphPad Prism software package.

| IC50 (RET kinase) [nM] | Fold Selectivity RET/MET (RET kinase) | IC50 (VEGFR-2 (KDR kinase)) [nM] | Fold Selectivity VEGFR-2/MET (VEGFR-2 (KDR kinase)) | fold potency versus c-MET kinase relative to corresponding mono-fluoro analog (c-MET kinase) [fold] | IC50 (c-MET kinase) [nM] | SMILES |
| --- | --- | --- | --- | --- | --- | --- |
| > 3300 | >825 | 52 | 13 | 6.5 | 4 | CC(=O)Nc1cc(Oc2cc(F)c(NC(=O)C3(C(=O)Nc4ccc(F)cc4)CC3)cc2F)ccn1 [Compound D, N-(4-(2-acetamidopyridin-4-yloxy)-2,5-difluorophenyl)-N′-(4-fluorophenyl)cyclopropane-1,1-dicarboxamide] |
| 43 | 1.65 | 122 | 4.69 | – | 26 | CC(=O)Nc1cc(Oc2ccc(NC(=O)C3(C(=O)Nc4ccc(F)cc4)CC3)c(F)c2)ccn1 [Compound E, N-(4-(2-acetamidopyridin-4-yloxy)-2-fluorophenyl)-N′-(4-fluorophenyl)cyclopropane-1,1-dicarboxamide] |
| – | 0.81 | – | 2.13 | 1.1 | – | CN1CCN(C2CCN(C(=O)Nc3cc(Oc4cc(F)c(NC(=O)C5(C(=O)Nc6ccc(F)cc6)CC5)cc4F)ccn3)CC2)CC1 [Compound G] |
| – | 7 | – | 2.5 | – | – | O=C(Nc1cc(Oc2cc(F)c(NC(=O)C3(C(=O)Nc4ccc(F)cc4)CC3)cc2F)ccn1)N1CC(CO)C1 [Compound H] |
